Laboratory results: patent publication US10168342B2, “Lipid probes and uses thereof” (THE SCRIPPS RESEARCH INSTITUTE, priority 2015, dated 2019)

Tests used:
Assay in all cases: In situ competitive SILAC profiling with A-DA probe in (PMA-stimulated) A549 cells
Conditions in all cases: A549 cells, A-DA probe
[1] = target: A-DA lipid probe targets in A549 cells (Homo sapiens, UniProt P21796)
[2] = target: T1, A-DA lipid probe targets in A549 cells (Homo sapiens, UniProt P35354)
T1 sequence (P35354 18-604): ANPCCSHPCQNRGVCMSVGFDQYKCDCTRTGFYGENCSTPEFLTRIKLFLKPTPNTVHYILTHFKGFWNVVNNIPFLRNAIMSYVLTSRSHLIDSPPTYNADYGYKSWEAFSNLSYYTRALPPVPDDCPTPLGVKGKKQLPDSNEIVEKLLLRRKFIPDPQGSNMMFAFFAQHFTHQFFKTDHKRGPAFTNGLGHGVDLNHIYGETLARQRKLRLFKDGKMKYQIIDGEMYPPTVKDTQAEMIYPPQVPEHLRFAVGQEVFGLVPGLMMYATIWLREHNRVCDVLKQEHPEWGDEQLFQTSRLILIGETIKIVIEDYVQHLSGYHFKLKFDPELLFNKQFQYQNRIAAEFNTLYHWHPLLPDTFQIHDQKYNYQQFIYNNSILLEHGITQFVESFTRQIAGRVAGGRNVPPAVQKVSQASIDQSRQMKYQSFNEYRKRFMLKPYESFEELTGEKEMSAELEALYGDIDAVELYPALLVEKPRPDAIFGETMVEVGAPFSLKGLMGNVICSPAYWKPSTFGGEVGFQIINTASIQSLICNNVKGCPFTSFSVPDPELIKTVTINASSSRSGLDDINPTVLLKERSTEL

[3] = target: T2, A-DA lipid probe targets in A549 cells (Homo sapiens, UniProt P50402)
T2 sequence (P50402 1-254): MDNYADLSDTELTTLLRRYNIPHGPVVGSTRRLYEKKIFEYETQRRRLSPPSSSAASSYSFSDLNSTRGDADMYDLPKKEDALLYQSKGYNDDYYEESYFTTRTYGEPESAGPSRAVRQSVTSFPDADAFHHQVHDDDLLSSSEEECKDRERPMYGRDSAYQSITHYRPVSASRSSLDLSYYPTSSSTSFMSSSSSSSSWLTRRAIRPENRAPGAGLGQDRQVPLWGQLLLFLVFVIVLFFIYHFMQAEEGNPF

[4] = target: T3, A-DA lipid probe targets in A549 cells (Homo sapiens, UniProt Q53GQ0)
T3 sequence (Q53GQ0 1-312): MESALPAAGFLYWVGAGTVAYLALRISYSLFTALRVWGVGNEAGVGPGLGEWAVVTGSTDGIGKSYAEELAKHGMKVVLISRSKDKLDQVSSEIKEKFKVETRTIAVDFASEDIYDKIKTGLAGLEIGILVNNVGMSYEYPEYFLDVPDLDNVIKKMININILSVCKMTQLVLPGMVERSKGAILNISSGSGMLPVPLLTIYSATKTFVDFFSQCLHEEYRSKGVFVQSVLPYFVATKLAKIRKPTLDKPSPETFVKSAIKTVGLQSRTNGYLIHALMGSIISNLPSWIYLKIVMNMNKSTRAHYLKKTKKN

[5] = target: T4, A-DA lipid probe targets in A549 cells (Homo sapiens, UniProt Q7Z2K6)
T4 sequence (Q7Z2K6 1-904): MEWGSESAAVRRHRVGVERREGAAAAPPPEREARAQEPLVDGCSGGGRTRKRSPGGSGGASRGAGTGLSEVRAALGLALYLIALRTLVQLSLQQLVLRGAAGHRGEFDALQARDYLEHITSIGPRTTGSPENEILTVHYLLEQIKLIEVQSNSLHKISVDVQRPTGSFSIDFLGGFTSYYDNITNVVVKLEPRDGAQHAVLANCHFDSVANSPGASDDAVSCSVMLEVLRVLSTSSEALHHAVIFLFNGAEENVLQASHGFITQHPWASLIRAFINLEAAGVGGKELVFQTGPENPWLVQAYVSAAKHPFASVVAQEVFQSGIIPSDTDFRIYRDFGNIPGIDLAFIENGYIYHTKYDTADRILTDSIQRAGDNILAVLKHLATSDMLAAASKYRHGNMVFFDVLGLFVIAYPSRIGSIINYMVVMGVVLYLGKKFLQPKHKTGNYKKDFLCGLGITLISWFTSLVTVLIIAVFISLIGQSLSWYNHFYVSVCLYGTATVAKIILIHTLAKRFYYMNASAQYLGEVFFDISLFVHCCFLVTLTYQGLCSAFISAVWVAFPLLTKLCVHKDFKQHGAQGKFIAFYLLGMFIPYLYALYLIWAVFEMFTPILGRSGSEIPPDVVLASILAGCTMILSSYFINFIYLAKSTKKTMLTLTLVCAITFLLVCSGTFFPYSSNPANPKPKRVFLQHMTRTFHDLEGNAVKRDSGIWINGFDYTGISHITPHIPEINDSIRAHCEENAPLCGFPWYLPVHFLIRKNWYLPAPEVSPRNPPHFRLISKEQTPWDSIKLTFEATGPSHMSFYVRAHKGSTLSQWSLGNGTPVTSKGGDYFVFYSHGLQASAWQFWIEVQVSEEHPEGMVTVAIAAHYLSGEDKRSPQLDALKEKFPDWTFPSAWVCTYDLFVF

[6] = target: T5, A-DA lipid probe targets in A549 cells (Homo sapiens, UniProt Q96G23)
T5 sequence (Q96G23 1-380): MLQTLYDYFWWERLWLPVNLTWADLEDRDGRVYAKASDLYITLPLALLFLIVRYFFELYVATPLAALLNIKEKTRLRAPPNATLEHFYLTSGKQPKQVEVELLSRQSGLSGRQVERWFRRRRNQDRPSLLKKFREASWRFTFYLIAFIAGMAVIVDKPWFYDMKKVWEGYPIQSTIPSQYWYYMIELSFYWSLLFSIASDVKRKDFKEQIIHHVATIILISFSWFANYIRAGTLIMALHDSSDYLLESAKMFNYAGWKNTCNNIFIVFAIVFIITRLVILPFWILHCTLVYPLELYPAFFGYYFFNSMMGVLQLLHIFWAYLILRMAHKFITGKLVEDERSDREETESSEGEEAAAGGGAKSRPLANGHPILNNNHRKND

A-DA lipid probe targets in A549 cells (Homo sapiens, UniProt P21796), sequence (P21796 whole entry): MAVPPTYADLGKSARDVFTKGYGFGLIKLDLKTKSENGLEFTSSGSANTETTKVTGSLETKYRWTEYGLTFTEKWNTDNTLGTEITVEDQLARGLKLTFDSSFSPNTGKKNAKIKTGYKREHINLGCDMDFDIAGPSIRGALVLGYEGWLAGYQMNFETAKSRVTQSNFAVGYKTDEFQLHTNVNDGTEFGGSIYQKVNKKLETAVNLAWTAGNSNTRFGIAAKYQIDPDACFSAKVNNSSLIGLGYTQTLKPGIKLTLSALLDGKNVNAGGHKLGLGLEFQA

Row | Structure (SMILES) | SILAC ratio, VDAC1 (P21796) ([1]; competitor 25 μM) | SILAC ratio, PTGS2 (P35354) ([2]; competitor 25 μM) | SILAC ratio, EMD (O08579) ([3]; competitor 25 μM) | SILAC ratio, HSD17B12 (Q53GQ0) ([4]; competitor 25 μM) | SILAC ratio, ERMP1 (Q7Z2K6) ([5]; competitor 25 μM) | SILAC ratio, CERS2 (Q924Z4) ([6]; competitor 25 μM) | SILAC ratio, VDAC1 (P21796) ([1]; competitor 5 μM) | SILAC ratio, VDAC1 (P21796) ([1]; competitor 50 μM) | SILAC ratio, PTGS2 (P35354) ([2]; competitor 5 μM) | SILAC ratio, PTGS2 (P35354) ([2]; competitor 50 μM) | SILAC ratio, EMD (O08579) ([3]; competitor 5 μM) | SILAC ratio, EMD (O08579) ([3]; competitor 50 μM) | SILAC ratio, HSD17B12 (Q53GQ0) ([4]; competitor 5 μM) | SILAC ratio, HSD17B12 (Q53GQ0) ([4]; competitor 50 μM) | SILAC ratio, ERMP1 (Q7Z2K6) ([5]; competitor 5 μM) | SILAC ratio, ERMP1 (Q7Z2K6) ([5]; competitor 50 μM) | SILAC ratio, CERS2 (Q924Z4) ([6]; competitor 5 μM) | SILAC ratio, CERS2 (Q924Z4) ([6]; competitor 50 μM)
1 | O=C(/C=C/c1cccnc1)NCCCCC1CCN(C(=O)c2ccccc2)CC1 [FK-866, reference compound] | 1.3 | 1.9 | 1.3 | 1.4 | 1.6 | 1.4 |  |  |  |  |  |  |  |  |  |  |  | 
2 | C=CCN(C)CCCCCCOc1ccc(C(=O)c2ccc(Br)cc2)c(F)c1 [Ro488071] |  |  |  |  |  |  | 1.4 | 3.3 | 2.5 | 3.3 | 0.6 | 0.8 | 1.4 | 3.0 | 1.4 | 3.2 | 1.5 | 2.5
